Row | Structure (SMILES) | melting point
1 | Nc1ccc(NC2CCCCCC2)c([N+](=O)[O-])c1 | 153 °C
2 | CCCn1nc2c(N)nc3ccccc3c2c1CCNC(=O)NCC | 206 to 207 °C
3 | Nc1nc(NC2CCCCCCC2)c2ncn(C3C=CC(CO)C3)c2n1 (stereo not given) | 171 to 173 °C
4 | CNC(=O)NCCCCC1CCSS1 (stereo not given) | 89 to 90 °C
5 | CC(=O)OC1NC(=O)C2=C1c1ccc(Cl)cc1C(c1ccccc1Cl)=NC2 (stereo not given) | 219 to 221 °C
6 | CC=Cc1nc2cc3c(cc2[nH]1)NC(=O)C3(C)C | 252 to 254 °C
7 | CC1(C)SC(c2ccco2)NC1C(=O)O (stereo not given) | 141 to 143 °C
8 | Cn1c(C(F)(F)F)cc(=O)n(-c2cc(S(=O)(=O)n3cccn3)c(Cl)cc2F)c1=O | 172 °C
9 | COc1ccc(Nc2ccc(Nc3ccnc4cc(-c5ccc(OC)nc5)sc34)cc2)cc1 | 175 to 184 °C
10 | CC(=O)c1sc(Oc2ccc3c(c2)OCO3)c2c1CCc1cnn(C)c1-2 | 102 to 103 °C
11 | CCOc1cc2c(Nc3cc(OC)c(Cl)cc3Cl)c(C#N)cnc2cc1Br | > 250 °C
12 | COc1cc(C2=C(c3cn(CCCNC(=O)C(N)CO)c4ccccc34)C(=O)NC2=O)cc(OC)c1OC (stereo not given) | 112 to 114 °C
13 | Nc1nc(-n2cc(C(=O)O)c(=O)c3cc(F)c(F)c(Cl)c32)ncc1F | 242 to 246 °C
14 | O=C1c2ccccc2C(=O)c2sc(-c3cccnc3)nc21 | 256 °C
15 | Cc1ccc(C(=O)Nc2ccc3ccc(Cl)nc3n2)cc1 | 228 °C
16 | COc1cc(-c2c(Cl)c(CN3CCCC3=O)nc3sc4c(c23)CCN(Cc2ccccc2)C4)ccc1OC(C)C | 140 to 141 °C
17 | O=C(NOC(=O)Oc1ccccc1)Oc1ccccc1 | 80 to 82 °C
18 | O=C1CC(c2ccc3oc4c(c3c2)CCCC4)CC(=O)O1 | 164 to 166 °C
19 | Nc1nc2ccccc2n1CCCN1CCCCC1 | 179 to 181 °C
20 | CN(C)c1ccc(-c2cccc3c2C2(COc4cc5c(cc42)CCO5)C(=O)N3Cc2ccc(C(F)(F)F)o2)cn1 (stereo not given) | 223 to 225 °C
21 | CCOC(=O)c1cc2c(cn1)[nH]c1ccc(C(C)=O)cc12 | 290 to 305 °C
22 | O=C(Nc1ccc2nc(CN3CCCCC3)ccc2c1)c1ccc(-c2ccc(F)cc2F)nc1 | 182 to 183 °C
23 | CCCCNc1ncc(C(=O)c2ccc(Cl)c([N+](=O)[O-])c2)s1 | 192 to 194 °C
24 | CCCCCCCC(CC(=O)O)CC(=O)O | 43 to 44 °C
25 | NC(=O)NC1CCCc2sccc21 (stereo not given) | 203 to 207 °C

Row | Structure (SMILES) | melting point
26 | C[C@@H]1Cc2cc3c(cc2C(c2ccc([N+](=O)[O-])cc2)=NN1C(=S)NN)OCO3 | 140 to 142 °C
27 | COc1ccc(-c2noc3cc(OC)ccc23)c(C)c1 | 126 to 128 °C
28 | Cc1ccc2c(c1Cl)S(=O)(=O)N=CN2C1CC1 | 218 to 223 °C
29 | O=C(O)c1cn2c3c(cc(Cl)cc3c1=O)CCC2 | 282 to 286 °C
30 | CC(=O)N1OCC(=O)N(CO)C1c1ccccc1 (stereo not given) | 123 to 126 °C
31 | COc1cccc(OCCCc2cn(-c3ccc(C(F)(F)F)cn3)nc2C(C)C)c1CC(=O)O | 183 to 184 °C
32 | N=C(N)N1CCC(CC(=O)O)CC1 | > 310 °C
33 | Cc1c(C(=O)Nc2ccc(N3CCC(N4CCOCC4)CC3)c(C#N)c2)cnn1-c1ccccc1Cl | 218 °C
34 | CC(C)CC(=O)Nc1cccc(-c2ccnc3c(-c4cccc(-c5ccccc5)c4)cnn23)c1 | 182 to 185 °C
35 | Cc1ccc2c(c1)C(=O)N(CCO[N+](=O)[O-])CO2 | 76 to 78 °C
36 | CCSc1cn(C)cc(-c2cc(C(F)(F)F)ccc2Cl)c1=O | 127 to 129 °C
37 | Cc1oc(-c2ccccc2)nc1CCOc1cc(CO)on1 | 115 to 116 °C
38 | CCSc1ccc(C(=O)NCc2ccc3c(c2)C(=O)N(C2(C)CCC(=O)NC2=O)C3=O)cc1 (stereo not given) | 135 to 137 °C
39 | CNS(=O)(=O)c1cn(C)c2cc(Cl)c(F)cc2c1=O | 235 to 236 °C
40 | CC(C)(O)c1ccc(C(=O)Nc2cn3cc(-n4ccnc4)ccc3n2)cc1 | 281 to 282 °C
41 | CCC(=O)c1cc2ccccc2s1 | 79 to 81 °C
42 | CCC1CC(=O)N(CCc2ccc(NC(=O)c3cccs3)cc2)N=C1c1ccc(OC)c(OC)c1 (stereo not given) | 186 °C
43 | CN(C)C(=O)c1cc2c(nc(C3CC3)n2C)c2c1CCC(c1ccccc1)O2 (stereo not given) | 176 to 179 °C
44 | COC(=O)c1ccc(CN(C(C)C)S(=O)(=O)c2ccc(Cl)cc2)cc1 | 110 to 112 °C
45 | CCCCCCCCCCCCCCCCCCOc1ccc(S(=O)(=O)Nc2ccccc2Cl)cc1NC(=O)CC(=O)N1CCc2ccccc21 | 124 to 128 °C
46 | CC1(O)c2ccccc2CC12CCC1(CC2)OCCO1 (stereo not given) | 140 to 143 °C
47 | CCOC(=O)C1=C(C)NC(c2nccn2C)=NC1c1ccc(F)cc1Cl (stereo not given) | 166 to 167 °C
48 | COc1ccc2c(c1)CC(C(=O)NCc1ccc(C(=O)O)cc1)N2S(=O)(=O)c1ccc(-c2ccc(F)cc2F)cc1 (stereo not given) | 143 °C
49 | CCn1nc(C(N)=O)cc1CC(C)(C)NC(=O)OC(C)(C)C | 178 to 180 °C
50 | CN(C)CCC1CCCCN1CC(=O)N1c2ccccc2NC(=O)c2ccccc21 (stereo not given) | 155 to 157 °C

Row | Structure (SMILES) | melting point
51 | N#C/C=C/c1cccc(Cl)c1 | 26 to 28 °C
52 | CNC(=O)C1CC(C)CCC1C(C)C (stereo not given) | 95 to 97 °C
53 | N#Cc1cccc(C(=O)NCc2cccc3c2CN(C2CCC(=O)NC2=O)C3=O)c1 (stereo not given) | 282 to 284 °C
54 | Cc1c(F)c(Br)cc(Br)c1C(=O)O | 144 to 146 °C
55 | N#CSCOc1cc(Cl)c(Cl)cc1Cl | 103 to 105 °C
56 | CC(C)n1nc(-c2cc(-c3ncnn3C)c(N)nc2-c2ccccc2)ccc1=O | 253 to 254 °C
57 | COc1cc(N2CCC(N3CCN(C)CC3)CC2)ccc1-c1nc2c(N[C@H]3[C@@H](C(N)=O)[C@@H]4C=C[C@H]3C4)c(Br)cnc2[nH]1 | 185 to 195 °C
58 | COC(=O)c1nnc(Cl)cc1Cl | 57 to 59.5 °C
59 | COc1ccc(-n2c(=O)c(C)nc3ccccc32)cc1 | 230 to 232 °C
60 | O=C(Nc1cccc(C(F)(F)F)c1)Nc1c(C(=O)O)[nH]c(=O)[nH]c1=O | > 300 °C
61 | Cc1cc(-c2ccc(Cl)cc2)nc(-c2ccnc(-c3cccc(S(N)(=O)=O)c3)c2)n1 | 224 °C
62 | C(=C\c1cc(/C=C/c2ccc3[nH]ccc3c2)n[nH]1)/c1cccc(OCc2ccccn2)c1 | 183 to 186 °C
63 | Cc1c(NC(=O)c2ccc(C(C)(C)C)cc2)cccc1-c1cn(C)c(=O)c(Nc2ccc(C(C(=O)O)N(C)C(C)C)cc2)n1 (stereo not given) | 197 to 198 °C
64 | NS(=O)(=O)c1nc2ccc(OC(=O)CC3CCCC3)cc2s1 | 118 to 120 °C
65 | Cc1c(C(=O)O)oc(=O)c2ccccc12 | 248 to 249 °C
66 | O=C(O)[C@@H]1CCCN1C(=O)CCCS | 157 to 158 °C
67 | CN1C(=O)N(c2c(Cl)cccc2Cl)Cc2cnc(NCCc3ccc(N)cc3)nc21 | 174 to 175 °C
68 | O=c1[nH]c(-c2ccccc2)c(F)c(=O)n1-c1ccc(OC(F)(F)F)cc1 | 295 to 303 °C
69 | O=C1c2ccccc2C(=O)N1CCCCOc1ccncc1 | 126 to 127 °C
70 | O=S(=O)(C(/C=C/c1ccc(F)cc1)c1c(F)c(F)c(F)c(F)c1F)C(/C=C/c1ccc(F)cc1)c1c(F)c(F)c(F)c(F)c1F (stereo not given) | 133 to 136 °C
71 | O=C(O)[C@H](CSc1ccccc1[N+](=O)[O-])N1C(=O)c2ccccc2C1=O | 220 to 222 °C
72 | Cc1cc(SCc2oc(-c3ccc(C(F)(F)F)cc3)nc2C)ccc1OCC(=O)O | 156 to 157 °C
73 | N#CCCN1CCC(C2(c3ccc(F)cc3)OCCO2)CC1 | 107 to 109 °C
74 | COc1ccc([C@@H]2Sc3cc(Oc4ccc(F)cc4)ccc3NC(=O)[C@@H]2O)cc1F | 222 to 224 °C
75 | Cc1sc(-c2ccc(Br)cc2)nc1O | 206 to 207 °C

Row | Structure (SMILES) | melting point
76 | CCSc1nsc(NC(=O)NC)c1C#N | 246 °C
77 | COc1cccc(C2=CCN(c3ccc(Cl)nn3)CC2)c1 | 126 °C
78 | COc1ccc2c(c1)N(CC(=O)O)C(=O)C(N=[N+]=[N-])CC2 (stereo not given) | 145 to 147 °C
79 | NC(=O)C(NC(=O)OCc1ccccc1)C(O)CO (stereo not given) | 175 to 176 °C
80 | CC(C)CC(=O)Nc1c(C(=O)c2ccoc2)[nH]c2cc(Cl)ccc12 | 202 to 203 °C
81 | Cc1ccc(N2C(=O)NC(NCC(C)C)NC2=O)cc1 | 297 to 301 °C
82 | Cn1nnnc1C(C=O)=C(c1ccc(F)cc1)c1ccc(F)cc1 | 135 to 137 °C
83 | Cc1sc2nc(SCCCN3CCN(c4ccc5ccccc5n4)CC3)[nH]c(=O)c2c1C | 225 to 226 °C
84 | COC(=O)c1ccc2oc3c(c(=O)c2c1)CCC3=Cc1ccc(C)cc1C | 212 to 214 °C
85 | CCOc1ccc(-c2ccc3c(c2)C=C(C(=O)OC)CCN3C=O)cc1 | 133 to 135 °C
86 | Cc1c(C)c2c(c(C)c1N)CC(C)(CN1CCC(Cc3ccccc3)CC1)O2 (stereo not given) | 71 to 73 °C
87 | O=Cc1ccc(O)c2oc3ccc([N+](=O)[O-])cc3c12 | > 270 °C
88 | COC(=O)C1CCc2sc3ccccc3c2C1=O (stereo not given) | 158 to 160 °C
89 | Cc1cccc(Nc2cc(Nc3cccc(O)c3)ncn2)c1 | 188 to 189 °C
90 | C[C@H]1C(=O)C[C@@H]2C[C@H]1OO[C@]2(C)/C=C\c1ccc(Cl)c(Cl)c1 | 135 °C
91 | CCOCCn1cc(C2CCN(CCOc3cc(OC)ccc3C(=O)O)CC2)c2cccnc21 | 106 to 108 °C
92 | CCOC(=O)C1=C(Nc2ccc(C(=O)OCC)cc2)OCC1=O | 152 to 153 °C
93 | CCCn1nc2c(=O)[nH]c3ccccc3c2c1N | 266 to 268 °C
94 | O=C1N(Cc2ccc(-c3ccccc3C(F)(F)F)o2)c2ccccc2C12COc1cc3c(cc12)OCOC3 (stereo not given) | 124 to 126 °C
95 | CCCCN(CCCC)c1ccc(C(C#N)=C(C#N)C#N)c(OC)c1 | 86 °C
96 | NS(=O)(=O)c1cc2c(s1)S(=O)(=O)N(CCc1ccccc1)C[C@H]2O | 117 to 119 °C
97 | OCCCCCCCCN1CCC(C(O)(c2ccc(F)cc2)c2ccc(F)cc2)CC1 | 124 to 125 °C
98 | Nc1ncnc2[nH]cc(-c3ccc(Oc4ccccc4)cc3)c12 | 272 °C
99 | CC(C#N)c1ccc(C(=O)c2ccc(Cl)s2)cc1 (stereo not given) | 90 °C
100 | Cc1cccc(-c2nc(-c3ccc(S(C)(=O)=O)cc3)sc2-c2ccnc(C)c2)c1 | 134 to 138 °C

Source: a melting point compilation (Tetko et al.; mined from patent text by program, amines drawn as free bases though some values may be those of a salt)
